# Measured values reported in patent US20210163485A1, “Heterocyclic Compounds for the Treatment of Disease” (Oppilan Pharma Ltd., priority 2017, published 2021).
# pEC50: −log10 of the molar value.
# Biological target: T1, full-length human S1P1 (Homo sapiens, UniProt P21453)
# T1 construct: CHO-K1 Gαqi5 cells expression full-length human S1P1; expressed in transfected cells; host or cells: CHO-K1 Gαqi5 cells (membrane preparation)
# Assay: GTPγS binding assay (scintillation proximity assay) with S1P1 membranes
# Format: biochemical
# Details: S1P1 membrane from CHO-K1 Gαqi5 cells; GTPγ35S SPA, 60 minutes incubation
# Experimental: S1P1 membrane is prepared from CHO-K1 Gαqi5 cells expression full-length human S1P1. Scintillation proximity assay (SPA) is performed by incubating membranes, GTPγ^35S, and compounds at various concentrations for 60 minutes. Wheat germ agglutinin-coated SPA beads are added and incubated for 60 minutes before centrifugation and scintillation counting.
# T1 sequence (P21453 whole entry): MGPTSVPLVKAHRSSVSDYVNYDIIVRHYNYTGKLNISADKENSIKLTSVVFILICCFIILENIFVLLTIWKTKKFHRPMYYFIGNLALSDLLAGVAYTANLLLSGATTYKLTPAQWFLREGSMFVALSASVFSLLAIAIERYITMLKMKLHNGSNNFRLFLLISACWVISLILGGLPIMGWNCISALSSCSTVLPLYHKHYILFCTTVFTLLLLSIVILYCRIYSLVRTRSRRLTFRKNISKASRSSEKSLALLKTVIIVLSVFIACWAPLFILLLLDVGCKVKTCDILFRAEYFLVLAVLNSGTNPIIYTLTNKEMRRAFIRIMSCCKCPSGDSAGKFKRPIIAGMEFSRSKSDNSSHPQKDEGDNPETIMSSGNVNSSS
row,SMILES,pEC50
1,"CC(CO)Oc1cc(Cl)c(-c2noc(-c3cn4cc(C(F)(F)F)ncc4n3)n2)cc1Cl (stereo not shown) [Compound 7, 2-(2,5-dichloro-4-(5-(6-(trifluoromethyl)imidazo[1,2-a]pyrazin-2-yl)-1,2,4-oxadiazol-3-yl)phenoxy)propan-1-ol]",> 7.00
2,"OC[C@H](O)COc1cc(Cl)c(-c2noc(-c3cn4cc(C(F)(F)F)ncc4n3)n2)cc1Cl [Compound 8, (S)-3-(2,5-dichloro-4-(5-(6-(trifluoromethyl)imidazo[1,2-a]pyrazin-2-yl)-1,2,4-oxadiazol-3-yl)phenoxy)propane-1,2-diol]",> 7.00
3,"OC[C@@H](O)COc1cc(Cl)c(-c2noc(-c3cn4cc(C(F)(F)F)ncc4n3)n2)cc1Cl [Compound 9, (R)-3-(2,5-dichloro-4-(5-(6-(trifluoromethyl)imidazo[1,2-a]pyrazin-2-yl)-1,2,4-oxadiazol-3-yl)phenoxy)propane-1,2-diol]",> 7.00
4,"N[C@@H](CO)COc1cc(Cl)c(-c2noc(-c3cn4nc(C(F)(F)F)ccc4n3)n2)cc1Cl [Compound 19, (S)-2-amino-3-(2,5-dichloro-4-(5-(6-(trifluoromethyl)imidazo[1,2-b]pyridazin-2-yl)-1,2,4-oxadiazol-3-yl)phenoxy)propan-1-ol]",> 7.00

# Results, then the compound that gave them:
row,pEC50,SMILES
1,6.00 to 7.00,"CC(CO)Oc1cc(Cl)c(-c2noc(-c3cn4nc(C(F)(F)F)ccc4n3)n2)cc1Cl (stereo not shown) [Compound 21, 2-(2,5-dichloro-4-(5-(6-(trifluoromethyl)imidazo[1,2-b]pyridazin-2-yl)-1,2,4-oxadiazol-3-yl)phenoxy)propan-1-ol]"
2,6.00 to 7.00,"OC[C@H](O)COc1cc(Cl)c(-c2noc(-c3cn4nc(C(F)(F)F)ccc4n3)n2)cc1Cl [Compound 22, (S)-3-(2,5-dichloro-4-(5-(6-(trifluoromethyl)imidazo[1,2-b]pyridazin-2-yl)-1,2,4-oxadiazol-3-yl)phenoxy)propane-1,2-diol]"
3,> 7.00,"N[C@@H](CO)COc1cc(Cl)c(-c2noc(-c3cn4cc(C(F)(F)F)ncc4n3)n2)cc1Cl [Compound 24, (S)-2-amino-3-(2,5-dichloro-4-(5-(6-(trifluoromethyl)imidazo[1,2-a]pyrazin-2-yl)-1,2,4-oxadiazol-3-yl)phenoxy)propan-1-ol]"
